Columns and labels:
[1] = Comparative equilibrium solubility study of micronized and non-micronized Compound 1; assay type: physicochemical; conditions: for Concentration of Compound 1 in 0.1N HCl + 0.5% SLS: pH 1; for Concentration of Compound 1 in PBS: pH 7.4
Protocol: Objective: The purpose of this study was to evaluate the solubility of micronized and non-micronized Compound 1. The solubility study was conducted in two representative media in pH 1 (0.1 N HCl with 0.5% sodium lauryl sulfate) and in pH 7.4 (0.1M phosphate buffered saline). The experiment further compared the initial rate of dissolution and equilibrium solubilities of micronized and non-micronized Compound 1 over a period of time.
Solubility measurement procedure comprised the steps of: 1) weighing and mixing approximately 100 mg of micronized Compound 1 and 100 mL of 0.1N HCl with 0.5% SLS into amber jar 1; 2) weighing and mixing approximately 100 mg of micronized Compound 1 and 100 mL of PBS into amber jar 2; 3) weighing and mixing approximately 100 mg of non-micronized Compound 1 and 100 mL of 0.1N HCl with 0.5% SLS into amber jar 3; 4) weighing and mixing approximately 100 mg of non-micronized Compound 1 and 100 mL of PBS into amber jar 4; 5) mixing all samples in their respective amber jars using a multi purpose rotator for 2 hours; 4) sampling at 5 minutes, 10 minutes, 30 minutes, 60 minutes, 90 minutes, 120 minutes; 5) filtering the samples and 6) analyzing the filtrates using HPLC. For each time point, 10 mL of sample was drawn using a 10 mL syringe with a needle attached filter and using a syringe-top 0.45 μm PTFE syringe filter. The first 9 mL of the samples collected were put back into the original amber jar and then remaining 1 mL was transferred to HPLC vial for analysis.

[2] = Quantitative whole body autoradiography, Long Evans rats; assay type: in vivo; conditions: 50 mg/kg single oral
Protocol: (§1) Two studies were performed to evaluate the concentrations of Compound 1/metabolites in various tissues, including the eyes, following a single dose administration of radiolabeled Compound 1 (^14C-3-[5-(2-fluoro-phenyl)-[1,2,4]oxadiazol-3-yl]benzoic acid) to Sprague Dawley and Long Evans rats.
Long Evans rats: In a quantitative whole body autoradiography (QWBA) study, 8 male Long Evans rats (partially pigmented) obtained from Harlan were administered a single oral gavage dose of 50 mg/kg ^14C-Compound 1.
Animals were individually housed and certified rodent diet and water were provided ad libitum. Animals were acclimated for 3 days prior to dose administration. Environmental controls for the animal room were set to maintain a temperature of 18 to 26° C., a relative humidity of 50±20%, and a 12-hour light/12-hour dark cycle. As necessary, the 12-hour dark cycle was interrupted to accommodate study procedures. Animals were fasted overnight through 4 hours postdose on the day of dosing. At dosing, the animals weighed 160 to 178 g and were approximately 7 weeks of age. One animal/time point was sacrificed via exsanguination (cardiac puncture) under isoflurane anesthesia at 0.5, 1, 2, 4, 8, 24, 72, and 168 hours postdose.

[3] = Quantitative whole body autoradiography, Sprague Dawley rats; assay type: in vivo; conditions: 1 hr, 50 mg/kg single oral
Protocol: as §1
Sprague Dawley rats: As part of a quantitative whole body autoradiography (QWBA) study, 4 male and 4 female Sprague Dawley rats (albino) obtained from Charles River were administered a single oral gavage dose of 50 mg/kg ^14C-3-[5-(2-fluoro-phenyl)-[1,2,4]oxadiazol-3-yl]benzoic acid.
Animals were individually housed and certified rodent diet and water were provided ad libitum. Animals were acclimated for 8 days prior to dose administration. Environmental controls for the animal room were set to maintain a temperature of 18 to 26° C., a relative humidity of 50±20%, and a 12-hour light/12-hour dark cycle. The 12-hour dark cycle may have been interrupted to accommodate study procedures. Animals were fasted overnight through 4 hours postdose on the day of dosing. At dosing, the animals weighed 204 to 260 g and were approximately 9 to 11 weeks of age. […] The concentrations of ^14C-3-[5-(2-fluoro-phenyl)-[1,2,4]oxadiazol-3-yl]benzoic acid in the eye and related tissues are shown in the following table.

For `O=C(O)c1cccc(-c2noc(-c3ccccc3F)n2)c1` [Micronized Compound 1], which “Concentration of Compound 1 in 0.1N HCl + 0.5% SLS” value ([1]; 5 minutes) is on record?
The value was 6.85 µg/mL.

What about the “Concentration of Compound 1 in 0.1N HCl + 0.5% SLS” value ([1]; 10 minutes) of the same molecule?
Its value is 6.81 µg/mL.

What about the “Concentration of Compound 1 in 0.1N HCl + 0.5% SLS” value ([1]; 30 minutes) of the same molecule?
The value was 6.83 µg/mL.

What about the “Concentration of Compound 1 in 0.1N HCl + 0.5% SLS” value ([1]; 60 minutes) of the same molecule?
The value was 7.04 µg/mL.

What about the “Concentration of Compound 1 in 0.1N HCl + 0.5% SLS” value ([1]; 90 minutes) of the same molecule?
The value was 6.88 µg/mL.

And the “Concentration of Compound 1 in 0.1N HCl + 0.5% SLS” value ([1]; 120 minutes)?
The value was 7.18 µg/mL.

And the “Concentration of Compound 1 in PBS” value ([1]; 5 minutes)?
The value was 189.13 µg/mL.

And the “Concentration of Compound 1 in PBS” value ([1]; 10 minutes)?
The value was 191.45 µg/mL.

What about the “Concentration of Compound 1 in PBS” value ([1]; 30 minutes) of the same molecule?
The value was 197.59 µg/mL.

And the “Concentration of Compound 1 in PBS” value ([1]; 60 minutes)?
The value was 199.95 µg/mL.

What about the “Concentration of Compound 1 in PBS” value ([1]; 90 minutes) of the same molecule?
Its value is 200.29 µg/mL.

What about the “Concentration of Compound 1 in PBS” value ([1]; 120 minutes) of the same molecule?
The value was 203.08 µg/mL.

For `O=C(O)c1cccc(-c2noc(-c3ccccc3F)n2)c1` [Non-Micronized Compound 1], which “Concentration of Compound 1 in 0.1N HCl + 0.5% SLS” value ([1]; 5 minutes) is on record?
The value was 6.24 µg/mL.

And the “Concentration of Compound 1 in 0.1N HCl + 0.5% SLS” value ([1]; 10 minutes)?
The value was 6.38 µg/mL.

And the “Concentration of Compound 1 in 0.1N HCl + 0.5% SLS” value ([1]; 30 minutes)?
Its value is 6.87 µg/mL.

What about the “Concentration of Compound 1 in 0.1N HCl + 0.5% SLS” value ([1]; 60 minutes) of the same molecule?
The value was 6.99 µg/mL.

And the “Concentration of Compound 1 in 0.1N HCl + 0.5% SLS” value ([1]; 90 minutes)?
The value was 6.97 µg/mL.

And the “Concentration of Compound 1 in 0.1N HCl + 0.5% SLS” value ([1]; 120 minutes)?
The value was 7.04 µg/mL.

What about the “Concentration of Compound 1 in PBS” value ([1]; 5 minutes) of the same molecule?
Its value is 141.89 µg/mL.

And the “Concentration of Compound 1 in PBS” value ([1]; 10 minutes)?
Its value is 152.59 µg/mL.

What about the “Concentration of Compound 1 in PBS” value ([1]; 30 minutes) of the same molecule?
The value was 176.92 µg/mL.

What about the “Concentration of Compound 1 in PBS” value ([1]; 60 minutes) of the same molecule?
The value was 185.18 µg/mL.

What about the “Concentration of Compound 1 in PBS” value ([1]; 90 minutes) of the same molecule?
The value was 194.06 µg/mL.

What about the “Concentration of Compound 1 in PBS” value ([1]; 120 minutes) of the same molecule?
Its value is 196.54 µg/mL.

Which results are given for “^14C-3-[5-(2-fluoro-phenyl)-[1,2,4]oxadiazol-3-yl]benzoic acid”?
Concentrations of radioactivity ([2]; Exorbital lacrimal gland, 0.5 hr): 28.0 µg/g; Concentrations of radioactivity ([2]; Exorbital lacrimal gland, 1 hr): 7.59 µg/g; Concentrations of radioactivity ([2]; Exorbital lacrimal gland, 2 hr): 22.4 µg/g; Concentrations of radioactivity ([2]; Exorbital lacrimal gland, 4 hr): 10.2 µg/g; Concentrations of radioactivity ([2]; Exorbital lacrimal gland, 8 hr): 8.09 µg/g; Concentrations of radioactivity ([2]; Exorbital lacrimal gland, 24 hr): BLQ (BLQ = below the limit of quantitation (<0.457 μg equivalents ^14C-3-[5-(2-fluoro-phenyl)-[1,2,4]oxadiazol-3-yl]benzoic acid)); Concentrations of radioactivity ([2]; Exorbital lacrimal gland, 72 hr): BLQ (BLQ = below the limit of quantitation (<0.457 μg equivalents ^14C-3-[5-(2-fluoro-phenyl)-[1,2,4]oxadiazol-3-yl]benzoic acid)); Concentrations of radioactivity ([2]; Eye (lens), 0.5 hr): BLQ (BLQ = below the limit of quantitation (<0.457 μg equivalents ^14C-3-[5-(2-fluoro-phenyl)-[1,2,4]oxadiazol-3-yl]benzoic acid)); Concentrations of radioactivity ([2]; Eye (lens), 1 hr): BLQ (BLQ = below the limit of quantitation (<0.457 μg equivalents ^14C-3-[5-(2-fluoro-phenyl)-[1,2,4]oxadiazol-3-yl]benzoic acid)); Concentrations of radioactivity ([2]; Eye (lens), 2 hr): BLQ (BLQ = below the limit of quantitation (<0.457 μg equivalents ^14C-3-[5-(2-fluoro-phenyl)-[1,2,4]oxadiazol-3-yl]benzoic acid)); Concentrations of radioactivity ([2]; Eye (lens), 4 hr): BLQ (BLQ = below the limit of quantitation (<0.457 μg equivalents ^14C-3-[5-(2-fluoro-phenyl)-[1,2,4]oxadiazol-3-yl]benzoic acid)); Concentrations of radioactivity ([2]; Eye (lens), 8 hr): BLQ (BLQ = below the limit of quantitation (<0.457 μg equivalents ^14C-3-[5-(2-fluoro-phenyl)-[1,2,4]oxadiazol-3-yl]benzoic acid)); Concentrations of radioactivity ([2]; Eye (lens), 24 hr): BLQ (BLQ = below the limit of quantitation (<0.457 μg equivalents ^14C-3-[5-(2-fluoro-phenyl)-[1,2,4]oxadiazol-3-yl]benzoic acid)); Concentrations of radioactivity ([2]; Eye, 0.5 hr): 4.59 µg/g; Concentrations of radioactivity ([2]; Eye, 1 hr): 1.78 µg/g; Concentrations of radioactivity ([2]; Eye, 2 hr): 3.62 µg/g; Concentrations of radioactivity ([2]; Eye, 4 hr): 2.69 µg/g; Concentrations of radioactivity ([2]; Eye, 8 hr): 2.08 µg/g; Concentrations of radioactivity ([2]; Eye, 24 hr): BLQ (BLQ = below the limit of quantitation (<0.457 μg equivalents ^14C-3-[5-(2-fluoro-phenyl)-[1,2,4]oxadiazol-3-yl]benzoic acid)); Concentrations of radioactivity ([2]; Hardenian gland, 0.5 hr): 46.8 µg/g; Concentrations of radioactivity ([2]; Hardenian gland, 1 hr): 16.0 µg/g; Concentrations of radioactivity ([2]; Hardenian gland, 2 hr): 38.2 µg/g; Concentrations of radioactivity ([2]; Hardenian gland, 4 hr): 18.1 µg/g; Concentrations of radioactivity ([2]; Hardenian gland, 8 hr): 13.0 µg/g; Concentrations of radioactivity ([2]; Hardenian gland, 24 hr): 1.59 µg/g; Concentrations of radioactivity ([2]; Intra-orbital lacrimal gland, 0.5 hr): 28.8 µg/g; Concentrations of radioactivity ([2]; Intra-orbital lacrimal gland, 1 hr): 10.3 µg/g; Concentrations of radioactivity ([2]; Intra-orbital lacrimal gland, 2 hr): 25.2 µg/g; Concentrations of radioactivity ([2]; Intra-orbital lacrimal gland, 4 hr): 11.7 µg/g; Concentrations of radioactivity ([2]; Intra-orbital lacrimal gland, 8 hr): 10.3 µg/g; Concentrations of radioactivity ([2]; Intra-orbital lacrimal gland, 24 hr): BLQ (BLQ = below the limit of quantitation (<0.457 μg equivalents ^14C-3-[5-(2-fluoro-phenyl)-[1,2,4]oxadiazol-3-yl]benzoic acid)); Concentrations of radioactivity ([2]; Uveal tract, 0.5 hr): 20.6 µg/g; Concentrations of radioactivity ([2]; Uveal tract, 1 hr): 10.4 µg/g; Concentrations of radioactivity ([2]; Uveal tract, 2 hr): 18.1 µg/g; Concentrations of radioactivity ([2]; Uveal tract, 4 hr): 6.09 µg/g; Concentrations of radioactivity ([2]; Uveal tract, 8 hr): 11.6 µg/g; Concentrations of radioactivity ([2]; Uveal tract, 24 hr): BLQ (BLQ = below the limit of quantitation (<0.457 μg equivalents ^14C-3-[5-(2-fluoro-phenyl)-[1,2,4]oxadiazol-3-yl]benzoic acid)); Concentrations of radioactivity ([3]; Female, Exorbital lacrimal gland): 10.3 µg/g; Concentrations of radioactivity ([3]; Female, Harderian gland): 18.7 µg/g; Concentrations of radioactivity ([3]; Female, Intra-orbital lacrimal gland): 10.2 µg/g; Concentrations of radioactivity ([3]; Female, matrix cell blank (first line)): 1.41 µg/g; Concentrations of radioactivity ([3]; Male, Exorbital lacrimal gland): 21.1 µg/g; Concentrations of radioactivity ([3]; Male, Eye): 3.39 µg/g; Concentrations of radioactivity ([3]; Male, Harderian gland): 21.6 µg/g; Concentrations of radioactivity ([3]; Male, Intra-orbital lacrimal gland): 21.8 µg/g
